Values of other authors in US20110071071A1, “PSMB10: A DIAGNOSIS MARKER AND THERAPEUTIC TARGET OF CHRONIC REJECTION” (priority 2008, published 2011).

Assays:
[1] = target: T1, chymotrypsin-like activity of the purified 20S proteasome (Homo sapiens, UniProt P28074); details: in vitro
T1 sequence (P28074 60-263): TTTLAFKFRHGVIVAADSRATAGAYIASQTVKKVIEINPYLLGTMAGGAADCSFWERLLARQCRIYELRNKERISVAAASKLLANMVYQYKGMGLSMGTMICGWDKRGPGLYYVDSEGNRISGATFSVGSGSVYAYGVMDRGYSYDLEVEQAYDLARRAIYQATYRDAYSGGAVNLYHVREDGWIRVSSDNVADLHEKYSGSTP

20S proteasome = 20S proteasome (Homo sapiens, UniProt P28072+P28074+Q99436); details: all three catalytic sites
[2] = test system: murine neuroblastoma cell line Neuro-2a; details: Neuro-2a cells

For O=C(OC1Cc2c(O)cc(O)cc2OC1c1cc(O)c(O)c(O)c1)c1cc(O)c(O)c(O)c1 (single isomer, unassigned; (-)) [(−)-EGCG, (−)-epigallocatechin 3-gallate], the “inhibition of chymotrypsin-like (CT-L) activity of the 20S proteasome” value [1] is listed as “inhibiting the chymotrypsin-like activity”.

In the case of C[C@@]12OC(=O)[C@]1([C@@H](O)[C@@H]1C=CCCC1)NC(=O)[C@@H]2CCCl [NPI-0052, salinosporamide A], the 20S proteasome inhibition (20S proteasome) is given as “highly potent and selective 20S proteasome inhibitor with irreversible activity against all three catalytic sites”.

In the case of CC(=O)N[C@@H](CSC(=O)[C@]1([C@@H](O)C(C)C)NC(=O)[C@H](C)[C@@H]1O)C(=O)O [lactacystin], the neurite outgrowth [2] is given as “induce neurite outgrowth”.
